Source: US9790210B2, “N-(monocyclic aryl),N'-pyrazolyl-urea, thiourea, guanidine and cyanoguanidine compounds as TrkA kinase inhibitors” (Array BioPharma Inc., priority 2012, dated 2017)
pIC50: −log10 of the molar value.

What was measured:
CSK = target: T1, CSK (Homo sapiens, UniProt P41240); assay: KinaseProfiler; assay type: biochemical; details: 10 μM, ATP near Km
T1 construct: purchased Millipore, Inc. (KinaseProfiler service)
Procedure, shortened: (§1)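 The compound is tested once at 10 μM against each kinase, in duplicate, with ATP near Km. Activity remaining is given as percent of control, averaged.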

Flt1 = target: T2, Flt1 (Homo sapiens, UniProt P17948); assay: KinaseProfiler; assay type: biochemical; details: 10 μM, ATP near Km
T2 construct: purchased Millipore, Inc. (KinaseProfiler service)
Procedure, shortened: as §1

Yes = target: T3, Yes (Homo sapiens, UniProt P07947); assay: KinaseProfiler; assay type: biochemical; details: 10 μM, ATP near Km
T3 construct: purchased Millipore, Inc. (KinaseProfiler service)
Procedure, shortened: as §1

RIPK2 = target: T4, RIPK2 (Homo sapiens, UniProt O43353); assay: KinaseProfiler; assay type: biochemical; details: 10 μM, ATP near Km
T4 construct: purchased Millipore, Inc. (KinaseProfiler service)
Procedure, shortened: as §1

GRK7 = target: T5, GRK7 (Homo sapiens, UniProt Q8WTQ7); assay: KinaseProfiler; assay type: biochemical; details: 10 μM, ATP near Km
T5 construct: purchased Millipore, Inc. (KinaseProfiler service)
T5 sequence (Q8WTQ7 whole entry): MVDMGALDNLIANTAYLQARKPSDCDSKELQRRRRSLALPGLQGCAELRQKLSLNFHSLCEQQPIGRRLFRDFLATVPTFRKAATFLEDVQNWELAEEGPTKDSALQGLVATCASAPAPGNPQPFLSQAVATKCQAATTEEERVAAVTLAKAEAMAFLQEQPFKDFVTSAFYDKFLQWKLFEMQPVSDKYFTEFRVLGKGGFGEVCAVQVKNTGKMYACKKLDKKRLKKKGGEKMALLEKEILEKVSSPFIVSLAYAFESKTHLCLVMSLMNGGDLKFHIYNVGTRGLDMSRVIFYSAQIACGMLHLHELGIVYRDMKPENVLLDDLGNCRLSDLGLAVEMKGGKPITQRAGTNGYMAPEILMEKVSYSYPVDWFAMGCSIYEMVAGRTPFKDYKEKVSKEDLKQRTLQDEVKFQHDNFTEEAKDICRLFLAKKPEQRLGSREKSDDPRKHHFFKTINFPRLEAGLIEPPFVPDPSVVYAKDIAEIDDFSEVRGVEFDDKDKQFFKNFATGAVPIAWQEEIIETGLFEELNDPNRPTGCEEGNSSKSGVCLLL
Procedure, shortened: as §1

GSK3beta = target: T6, GSK3beta (Homo sapiens, UniProt P49841); assay: KinaseProfiler; assay type: biochemical; details: 10 μM, ATP near Km
T6 construct: purchased Millipore, Inc. (KinaseProfiler service)
Procedure, shortened: as §1

IKKbeta = target: T7, IKKbeta (Homo sapiens, UniProt O14920); assay: KinaseProfiler; assay type: biochemical; details: 10 μM, ATP near Km
T7 construct: purchased Millipore, Inc. (KinaseProfiler service)
Procedure, shortened: as §1

CHK1 = target: T8, CHK1 (Homo sapiens, UniProt O14757); assay: KinaseProfiler; assay type: biochemical; details: 10 μM, ATP near Km
T8 construct: purchased Millipore, Inc. (KinaseProfiler service)
T8 sequence (O14757 whole entry): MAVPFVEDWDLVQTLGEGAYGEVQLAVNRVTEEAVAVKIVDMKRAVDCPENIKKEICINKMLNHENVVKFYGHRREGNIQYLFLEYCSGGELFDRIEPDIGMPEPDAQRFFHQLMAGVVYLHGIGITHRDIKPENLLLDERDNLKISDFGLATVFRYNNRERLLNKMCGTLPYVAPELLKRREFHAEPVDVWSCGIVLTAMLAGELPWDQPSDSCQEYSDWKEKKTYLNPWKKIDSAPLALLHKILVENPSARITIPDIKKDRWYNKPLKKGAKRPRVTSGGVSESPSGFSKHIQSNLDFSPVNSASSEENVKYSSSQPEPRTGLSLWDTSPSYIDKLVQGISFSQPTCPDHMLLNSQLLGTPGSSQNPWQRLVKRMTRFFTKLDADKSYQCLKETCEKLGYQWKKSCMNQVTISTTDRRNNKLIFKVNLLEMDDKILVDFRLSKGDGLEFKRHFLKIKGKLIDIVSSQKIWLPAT
Procedure, shortened: as §1

CLK2 = target: T9, CLK2 (Homo sapiens, UniProt P49760); assay: KinaseProfiler; assay type: biochemical; details: 10 μM, ATP near Km
T9 construct: purchased Millipore, Inc. (KinaseProfiler service)
Procedure, shortened: as §1

CK1gamma1 = target: T10, CK1gamma1 (Homo sapiens, UniProt Q9HCP0); assay: KinaseProfiler; assay type: biochemical; details: 10 μM, ATP near Km
T10 construct: purchased Millipore, Inc. (KinaseProfiler service)
T10 sequence (Q9HCP0 whole entry): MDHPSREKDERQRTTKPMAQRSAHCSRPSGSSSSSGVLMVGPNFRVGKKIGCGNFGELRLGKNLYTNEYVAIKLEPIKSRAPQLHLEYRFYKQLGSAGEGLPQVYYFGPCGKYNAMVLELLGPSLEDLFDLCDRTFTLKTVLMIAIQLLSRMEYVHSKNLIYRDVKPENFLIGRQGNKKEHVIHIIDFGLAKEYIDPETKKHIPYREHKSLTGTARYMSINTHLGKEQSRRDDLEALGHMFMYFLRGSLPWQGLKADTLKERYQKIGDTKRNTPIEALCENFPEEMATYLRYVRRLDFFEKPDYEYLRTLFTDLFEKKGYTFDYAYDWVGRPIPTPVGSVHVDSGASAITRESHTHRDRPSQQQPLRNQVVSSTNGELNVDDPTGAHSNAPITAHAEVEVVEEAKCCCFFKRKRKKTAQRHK
Procedure, shortened: as §1

Pim-1 = target: T11, Pim-1 (Homo sapiens, UniProt P11309); assay: KinaseProfiler; assay type: biochemical; details: 10 μM, ATP near Km
T11 construct: purchased Millipore, Inc. (KinaseProfiler service)
T11 sequence (P11309 whole entry): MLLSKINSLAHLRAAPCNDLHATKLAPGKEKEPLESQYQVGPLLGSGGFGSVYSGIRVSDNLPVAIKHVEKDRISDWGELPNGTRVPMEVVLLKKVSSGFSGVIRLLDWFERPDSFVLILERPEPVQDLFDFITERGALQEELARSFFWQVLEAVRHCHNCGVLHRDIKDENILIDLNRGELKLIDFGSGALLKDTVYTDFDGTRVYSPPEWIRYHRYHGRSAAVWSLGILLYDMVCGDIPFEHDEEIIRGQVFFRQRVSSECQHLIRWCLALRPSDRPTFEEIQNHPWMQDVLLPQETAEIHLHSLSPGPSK
Procedure, shortened: as §1

PAK4 = target: T12, PAK4 (Homo sapiens, UniProt O96013); assay: KinaseProfiler; assay type: biochemical; details: 10 μM, ATP near Km
T12 construct: purchased Millipore, Inc. (KinaseProfiler service)
Procedure, shortened: as §1

ITK = target: T13, ITK (Homo sapiens, UniProt Q08881); assay: KinaseProfiler; assay type: biochemical; details: 10 μM, ATP near Km
T13 construct: purchased Millipore, Inc. (KinaseProfiler service)
T13 sequence (Q08881 whole entry): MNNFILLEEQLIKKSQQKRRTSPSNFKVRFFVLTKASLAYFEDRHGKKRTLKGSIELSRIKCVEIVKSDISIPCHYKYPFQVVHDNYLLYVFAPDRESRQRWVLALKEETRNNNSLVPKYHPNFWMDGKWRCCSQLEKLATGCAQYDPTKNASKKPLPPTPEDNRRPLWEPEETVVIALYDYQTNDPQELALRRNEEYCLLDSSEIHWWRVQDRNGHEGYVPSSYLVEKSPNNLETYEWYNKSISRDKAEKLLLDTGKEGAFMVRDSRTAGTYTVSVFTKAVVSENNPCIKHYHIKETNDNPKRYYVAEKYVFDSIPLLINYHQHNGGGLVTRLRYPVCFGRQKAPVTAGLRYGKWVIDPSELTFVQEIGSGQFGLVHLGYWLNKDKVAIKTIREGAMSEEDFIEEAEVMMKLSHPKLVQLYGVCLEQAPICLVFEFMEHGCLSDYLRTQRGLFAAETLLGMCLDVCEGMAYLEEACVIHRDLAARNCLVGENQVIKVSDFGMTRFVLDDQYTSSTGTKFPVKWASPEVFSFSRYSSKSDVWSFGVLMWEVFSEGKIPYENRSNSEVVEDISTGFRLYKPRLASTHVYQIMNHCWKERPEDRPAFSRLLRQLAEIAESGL
Procedure, shortened: as §1

ERK1 = target: T14, ERK1 (Homo sapiens, UniProt P27361); assay: KinaseProfiler; assay type: biochemical; details: 10 μM, ATP near Km
T14 construct: purchased Millipore, Inc. (KinaseProfiler service)
Procedure, shortened: as §1

SGK1 = target: T15, SGK1 (Homo sapiens, UniProt O00141); assay: KinaseProfiler; assay type: biochemical; details: 10 μM, ATP near Km
T15 construct: purchased Millipore, Inc. (KinaseProfiler service)
T15 sequence (O00141 whole entry): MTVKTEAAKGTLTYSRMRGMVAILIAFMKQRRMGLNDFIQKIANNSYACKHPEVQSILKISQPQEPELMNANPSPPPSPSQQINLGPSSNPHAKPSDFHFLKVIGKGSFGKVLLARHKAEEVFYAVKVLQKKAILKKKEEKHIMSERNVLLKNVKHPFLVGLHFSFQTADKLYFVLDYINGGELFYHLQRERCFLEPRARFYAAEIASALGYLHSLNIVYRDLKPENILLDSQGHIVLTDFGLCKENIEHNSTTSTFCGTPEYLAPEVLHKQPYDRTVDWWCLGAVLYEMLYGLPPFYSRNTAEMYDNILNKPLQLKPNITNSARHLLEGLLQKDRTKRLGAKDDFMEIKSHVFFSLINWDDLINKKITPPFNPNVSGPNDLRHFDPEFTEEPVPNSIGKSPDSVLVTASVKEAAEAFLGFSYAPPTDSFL
Procedure, shortened: as §1

DYRK2 = target: T16, DYRK2 (Homo sapiens, UniProt Q92630); assay: KinaseProfiler; assay type: biochemical; details: 10 μM, ATP near Km
T16 construct: purchased Millipore, Inc. (KinaseProfiler service)
Procedure, shortened: as §1

AMPK(A1/B1/G1) = target: T17, AMPK(A1/B1/G1) (Homo sapiens, UniProt Q13131); assay: KinaseProfiler; assay type: biochemical; details: 10 μM, ATP near Km
T17 construct: purchased Millipore (KinaseProfiler service)
Procedure, shortened: as §1

AKT2 = target: T18, AKT2 (Homo sapiens, UniProt P31751); assay: KinaseProfiler; assay type: biochemical; details: 10 μM, ATP near Km
T18 construct: purchased Millipore (KinaseProfiler service)
Procedure, shortened: as §1

PKCeta = target: T19, PKCeta (Homo sapiens, UniProt P24723); assay: KinaseProfiler; assay type: biochemical; details: 10 μM, ATP near Km
T19 construct: purchased Millipore, Inc. (KinaseProfiler service)
T19 sequence (P24723 whole entry): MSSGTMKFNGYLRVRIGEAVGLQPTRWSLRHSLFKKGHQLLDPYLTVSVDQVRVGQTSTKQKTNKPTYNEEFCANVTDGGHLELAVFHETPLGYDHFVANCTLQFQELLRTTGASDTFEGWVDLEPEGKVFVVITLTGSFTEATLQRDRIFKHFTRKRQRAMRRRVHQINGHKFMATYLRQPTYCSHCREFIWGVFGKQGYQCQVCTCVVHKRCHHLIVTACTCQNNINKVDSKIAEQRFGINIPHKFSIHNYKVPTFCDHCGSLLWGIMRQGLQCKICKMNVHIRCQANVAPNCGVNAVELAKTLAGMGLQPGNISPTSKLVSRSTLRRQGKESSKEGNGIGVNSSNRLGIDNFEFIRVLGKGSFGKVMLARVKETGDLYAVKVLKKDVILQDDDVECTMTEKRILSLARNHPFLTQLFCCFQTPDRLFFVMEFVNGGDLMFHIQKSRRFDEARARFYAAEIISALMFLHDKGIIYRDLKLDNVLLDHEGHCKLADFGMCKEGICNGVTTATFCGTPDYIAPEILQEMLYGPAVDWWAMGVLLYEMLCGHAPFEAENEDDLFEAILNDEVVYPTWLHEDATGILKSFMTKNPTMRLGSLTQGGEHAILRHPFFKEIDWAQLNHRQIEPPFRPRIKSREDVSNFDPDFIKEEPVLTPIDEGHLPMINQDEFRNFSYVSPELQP
Procedure, shortened: as §1

KDR = target: T20, KDR (Homo sapiens, UniProt P35968); assay: KinaseProfiler; assay type: biochemical; details: 10 μM, ATP near Km
T20 construct: purchased Millipore, Inc. (KinaseProfiler service)
Procedure, shortened: as §1

EphA4 = target: T21, EphA4 (Homo sapiens, UniProt P54764); assay: KinaseProfiler; assay type: biochemical; details: 10 μM, ATP near Km
T21 construct: purchased Millipore, Inc. (KinaseProfiler service)
Procedure, shortened: as §1

HIPK2 = target: T22, HIPK2 (Homo sapiens, UniProt Q9H2X6); assay: KinaseProfiler; assay type: biochemical; details: 10 μM, ATP near Km
T22 construct: purchased Millipore, Inc. (KinaseProfiler service)
Procedure, shortened: as §1

PRKG1beta = target: T23, PRKG1beta (Homo sapiens, UniProt Q13976); assay: KinaseProfiler; assay type: biochemical; details: 10 μM, ATP near Km
T23 construct: purchased Millipore, Inc. (KinaseProfiler service)
T23 sequence (Q13976 1-686 isoform Q13976-2): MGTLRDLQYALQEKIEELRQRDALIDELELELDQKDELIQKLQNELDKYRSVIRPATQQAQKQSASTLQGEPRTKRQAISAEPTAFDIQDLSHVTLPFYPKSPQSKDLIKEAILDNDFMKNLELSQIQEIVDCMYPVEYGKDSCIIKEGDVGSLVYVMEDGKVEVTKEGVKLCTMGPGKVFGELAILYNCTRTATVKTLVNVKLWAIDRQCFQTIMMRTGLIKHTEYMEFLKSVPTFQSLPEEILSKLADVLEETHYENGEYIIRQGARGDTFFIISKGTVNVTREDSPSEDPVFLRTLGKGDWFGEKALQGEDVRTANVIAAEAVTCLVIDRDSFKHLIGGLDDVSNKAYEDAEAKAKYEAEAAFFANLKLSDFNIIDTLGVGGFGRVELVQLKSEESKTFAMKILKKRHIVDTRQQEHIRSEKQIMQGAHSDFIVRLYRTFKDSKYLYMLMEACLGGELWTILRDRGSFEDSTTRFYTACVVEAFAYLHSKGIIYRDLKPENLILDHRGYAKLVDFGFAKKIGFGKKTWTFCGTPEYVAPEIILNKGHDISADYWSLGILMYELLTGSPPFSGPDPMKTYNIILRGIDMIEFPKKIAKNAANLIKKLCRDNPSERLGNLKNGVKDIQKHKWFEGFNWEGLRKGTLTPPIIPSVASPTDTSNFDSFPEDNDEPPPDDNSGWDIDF
Procedure, shortened: as §1

CK2alpha2 = target: T24, CK2alpha2 (Homo sapiens, UniProt P19784); assay: KinaseProfiler; assay type: biochemical; details: 10 μM, ATP near Km
T24 construct: purchased Millipore, Inc. (KinaseProfiler service)
T24 sequence (P19784 whole entry): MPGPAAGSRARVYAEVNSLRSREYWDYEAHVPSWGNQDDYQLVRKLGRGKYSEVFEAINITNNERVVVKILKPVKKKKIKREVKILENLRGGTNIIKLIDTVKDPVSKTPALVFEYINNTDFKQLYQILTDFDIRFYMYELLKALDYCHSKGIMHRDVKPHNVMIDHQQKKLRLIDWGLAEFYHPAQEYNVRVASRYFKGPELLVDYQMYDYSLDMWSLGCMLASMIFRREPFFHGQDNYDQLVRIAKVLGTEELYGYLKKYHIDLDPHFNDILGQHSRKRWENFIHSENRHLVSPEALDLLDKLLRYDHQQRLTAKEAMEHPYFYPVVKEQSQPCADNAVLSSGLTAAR
Procedure, shortened: as §1

AKT3 = target: T25, AKT3 (Homo sapiens, UniProt Q9Y243); assay: KinaseProfiler; assay type: biochemical; details: 10 μM, ATP near Km
T25 construct: purchased Millipore (KinaseProfiler service)
Procedure, shortened: as §1

IRAK1 = target: T26, IRAK1 (Homo sapiens, UniProt P51617); assay: KinaseProfiler; assay type: biochemical; details: 10 μM, ATP near Km
T26 construct: purchased Millipore, Inc. (KinaseProfiler service)
Procedure, shortened: as §1

TrkA = TrkA (Homo sapiens, UniProt P04629); assay: TrkA LanthaScreen Eu Kinase Binding Assay; design: 6HIS tagged cytoplasmic domain from Invitrogen, Catalog No. PV3144; purchased Invitrogen PV3144; details: averaged IC50; TR-FRET binding assay; read-out: TrkA Enzyme IC50
Experimental: TrkA binding activity was determined in a TrkA LanthaScreen™ Eu Kinase Binding Assay. 5 nM His-tagged recombinant human TrkA (6HIS tagged cytoplasmic domain from Invitrogen, Catalog No. PV3144) was incubated with 4 nM Alexa-Fluor® Tracer 236 (Invitrogen Cat. No. PV5592), 2 nM biotinylated anti-His (Invitrogen Cat. No. PV6090), and 2 nM europium-labeled Streptavidin (Invitrogen Cat. No. PV5899), in buffer (25 mM MOPS, pH 7.5, 5 mM MgCl2, 0.005% Triton X-100). Three fold serial dilutions of compounds of the invention in DMSO were added to a final percentage of 2% DMSO. After 60-minute incubation at 22° C., the reaction was measured using the EnVision mutlimode plate reader (PerkinElmer) via TR-FRET dual wavelength detection at […]. The percent of control was calculated using a ratiometric emission factor. The IC50 values were determined by fitting a four parameter model to the percent of control data.
Table A provides averaged IC50 values for compounds of the invention when tested in the assay of Example A, where A represents an averaged IC50 value<100 nM; B represents an averaged IC50 value from 100 to 1,000 nM; and C represents an averaged IC50 value from 1,000 to 10,000 nM.

off-target kinases = assay: KinaseProfiler off-target kinase profiling, full kinase panel; assay type: biochemical; details: 10 μM; panel of about 230 kinases
Experimental: A representative compound (Example 15) of the invention was tested for off-target kinase activity at a concentration of 10 μM by Millipore, Inc. in their KinaseProfiler™ service against all the kinases available in their full kinase panel. The compound was run in duplicate at a concentration of ATP near the Km for each individual kinase according to Millipore's specifications. The results are shown in Table B. Data are reported as percent of control (POC) and are the average of the two replicates.
Such a drug profile would represent a safer approach to treating pain, inflammation, cancer and certain skin diseases than has been previously reported.

T1 sequence (P41240 whole entry): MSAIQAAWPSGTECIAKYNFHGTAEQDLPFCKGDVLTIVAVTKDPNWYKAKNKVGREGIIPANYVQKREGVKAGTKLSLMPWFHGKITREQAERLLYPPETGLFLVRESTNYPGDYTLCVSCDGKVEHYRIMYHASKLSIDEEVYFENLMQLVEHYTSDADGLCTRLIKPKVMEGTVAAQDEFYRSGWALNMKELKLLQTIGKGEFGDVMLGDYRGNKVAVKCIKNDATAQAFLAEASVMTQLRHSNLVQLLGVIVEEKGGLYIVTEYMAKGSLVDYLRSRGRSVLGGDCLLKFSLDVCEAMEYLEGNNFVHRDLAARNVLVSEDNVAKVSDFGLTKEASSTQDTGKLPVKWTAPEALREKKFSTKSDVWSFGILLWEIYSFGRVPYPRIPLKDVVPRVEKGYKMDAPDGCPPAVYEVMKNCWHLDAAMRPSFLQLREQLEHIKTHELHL

COCCCc1cc(Cl)c(Cl)cc1NC(=O)Nc1c(C)c(-c2cnn(C)c2)nn1-c1ccccc1 [Example 15, 1-(4,5-dichloro-2-(3-methoxypropyl)phenyl)-3-(1′,4-dimethyl-1-phenyl-1H,1′H-[3,4′-bipyrazol]-5-yl)urea]
Avg POC (CSK): 139 POC | Avg POC (Flt1): 97.5 POC | Avg POC (Yes): 120.5 POC | Avg POC (RIPK2): 102 POC | Avg POC (GRK7): 115 POC | Avg POC (GSK3beta): 114.5 POC | Avg POC (IKKbeta): 113.5 POC | Avg POC (CHK1): 118 POC | Avg POC (CLK2): 111.5 POC | Avg POC (CK1gamma1): 99.5 POC | Avg POC (Pim-1): 108 POC | Avg POC (PAK4): 110.5 POC | Avg POC (ITK): 125 POC | Avg POC (ERK1): 103.5 POC | Avg POC (SGK1): 124 POC | Avg POC (DYRK2): 93.5 POC | Avg POC (AMPK(A1/B1/G1)): 149 POC | Avg POC (AKT2): 166.5 POC | Avg POC (PKCeta): 105.5 POC | Avg POC (KDR): 136 POC | Avg POC (EphA4): 115 POC | Avg POC (HIPK2): 99.5 POC | Avg POC (PRKG1beta): 130 POC | Avg POC (CK2alpha2): 112.5 POC | Avg POC (AKT3): 119.5 POC | Avg POC (IRAK1): 103 POC | pIC50 (TrkA): > 7.00 | off-target kinase activity / selectivity for TrkA versus other kinases in the panel (off-target kinases): largely inactive against off-target kinases
